The values below come from article PMC8621172, “Manipulating Estrogenic/Anti-Estrogenic Activity of Triphenylethylenes towards Development of Novel Anti-Neoplastic SERMs” (International Journal of Molecular Sciences, 2021).

One assay deals with 60 NCI tumor cell lines. The experiment in a line: NCI-60 single-dose growth inhibition screen (SRB). Format: cell-based, human. As to conditions: for anti-proliferative activity (in words): 10 µM, NCI-60 panel and MCF-7; for inhibition at 10 µM: Homo sapiens, mean over 60 NCI tumor cell lines. The protocol:
The anti-proliferative effects of the novel analogs were tested in vitro by the National Cancer Institute (NCI) on a panel of 60 human tumor cell lines at 10 µM. Compounds that elicited mean growth inhibition ≥50% were selected by the NCI for 5-dose testing.
Compounds were submitted to the Developmental Therapeutics Program (DTP) of the National Cancer Institute (NCI). The program uses a panel of 60 human tumor cell lines representing nine tissue types, including leukemia, non-small cell lung cancer (NSCLC), melanoma, colon cancer, ovarian cancer, CNS cancer, renal cancer, prostate cancer, and breast cancer, to screen for potential new anti-cancer agents. […] Primary screening of synthesized compounds was performed by testing a single high dose of 10 µM in the full NCI-60 panel. The percent growth of treated cells relative to the no-drug control and relative to the time zero number of cells was measured, and a mean graph was provided. The percentage inhibition was then calculated by subtracting the values obtained from 100.
All compounds were subjected to the NCI in vitro disease-oriented human cells screening panel assay. The human tumor cell lines of the cancer-screening panel are grown in RPMI 1640 medium containing 5% fetal bovine serum and 2 mM L-glutamine. For a typical screening experiment, cells are inoculated into 96-well microtiter plates in 100 μL at plating densities ranging from 5000 to 40,000 cells/well depending on the doubling time of individual cell lines. After cell inoculation, the microtiter plates are incubated at 37 °C, 5% CO2, 95% air, and 100% relative humidity for 24 h prior to the addition of experimental drugs. After 24 h, two plates of each cell line are fixed in situ with TCA to represent a measurement of the cell population for each cell line at the time of drug addition. Experimental drugs are solubilized in dimethyl sulfoxide at 400-fold the desired final maximum test concentration and stored frozen prior to use. At the time of drug addition, an aliquot of frozen concentrate is thawed and diluted to twice the desired final maximum test concentration with complete medium containing 50 μg/mL gentamicin. Additional four, 10-fold, or ½ log serial dilutions are made to provide a total of five drug concentrations plus control. Aliquots of 100 μL of these different drug dilutions are added to the appropriate microtiter wells already containing 100 μL of medium, resulting in the required final drug concentrations. Following drug addition, the plates are incubated for an additional 48 h at 37 °C, 5% CO2, 95% air, and 100% relative humidity. For adherent cells, the assay is terminated by the addition of cold TCA. Cells are fixed in situ by the gentle addition of 50 μL of cold 50% (w/v) TCA (final concentration, 10% TCA) and incubated for 60 min at 4 °C. The supernatant is discarded, and the plates are washed five times with tap water and air-dried. Sulforhodamine B (SRB) solution (100 μL) at 0.4% (w/v) in 1% acetic acid is added to each well, and plates are incubated for 10 min at room temperature. After staining, unbound dye is removed by washing five times with 1% acetic acid, and the plates are air-dried. Bound stain is subsequently solubilized with a 10 mM trizma base, and the absorbance is read on an automated plate reader at a wavelength of 515 nm. For suspension cells, the methodology is the same except that the assay is terminated by fixing settled cells at the bottom of the wells by gently adding 50 μL of 80% TCA (final concentration, 16% TCA). Compounds are screened at a dose of 10 µM, hits showing mean growth inhibition over 60 cell lines >50% are escalated for 5-dose screening assay.

The next assay addresses T1, human ERα (Homo sapiens, UniProt P03372).
T1 construct: host or cells: Saccharomyces cerevisiae
T1 sequence (P03372 1-595): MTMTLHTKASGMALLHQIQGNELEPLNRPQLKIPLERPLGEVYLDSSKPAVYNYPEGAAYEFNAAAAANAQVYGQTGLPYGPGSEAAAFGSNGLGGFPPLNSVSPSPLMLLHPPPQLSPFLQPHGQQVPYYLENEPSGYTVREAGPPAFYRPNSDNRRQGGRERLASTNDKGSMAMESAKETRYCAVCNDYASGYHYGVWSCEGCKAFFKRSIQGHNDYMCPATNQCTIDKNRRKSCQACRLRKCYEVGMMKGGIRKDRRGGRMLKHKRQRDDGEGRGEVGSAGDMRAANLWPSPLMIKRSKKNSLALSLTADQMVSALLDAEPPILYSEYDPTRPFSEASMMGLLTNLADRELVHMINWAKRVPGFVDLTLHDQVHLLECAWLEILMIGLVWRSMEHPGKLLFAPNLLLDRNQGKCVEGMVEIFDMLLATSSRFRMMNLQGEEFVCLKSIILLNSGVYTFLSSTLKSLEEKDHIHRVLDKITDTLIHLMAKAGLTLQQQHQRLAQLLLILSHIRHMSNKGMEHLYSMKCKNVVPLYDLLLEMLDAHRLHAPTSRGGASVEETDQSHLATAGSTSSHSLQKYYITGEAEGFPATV
The experiment in a line: Yeast estrogen screen (YES) assay, agonistic activity (β-galactosidase reporter). It counts as cell-based. As to conditions: triplicates; for EC50: YES assay; for Estrogenic Activity (relative β-galactosidase activity): compounds at 1 µM, compared to DMSO (set as 1). The protocol: All synthesized compounds were tested for their relative activity in β-galactosidase in a yeast estrogen screen (YES) assay. Compounds were tested for their relative estrogenic/anti-estrogenic activities in comparison to positive and negative controls, respectively. YES assay is a gene reporter assay where the DNA sequence of human ERα is integrated into the yeast genome completed with an expression plasmid carrying estrogen response elements (ERE) in the promoter controlling the expression of the reporter gene lacZ (encoding the enzyme β-galactosidase). In the presence of estrogenic compounds, β-galactosidase is synthesized and secreted into the medium, where it converts the chromogenic substrate chlorophenol red-β-D-galactopyranoside (CRPG) from a yellow to a red product, whose absorbance is measured. […] Therefore, we decided to test the novel compounds in an organ-specific in vitro model using the human Ishikawa endometrial adenocarcinoma cell line.
All synthesized compounds were tested for their relative β-galactosidase activity in a yeast estrogen screen (YES) assay at a concentration of 1 µM using DMSO as control (set as 1).
The yeast estrogen receptor assay was supplied by Dr. J.P. Sumpter (Brunel University, Uxbridge, UK) and was used to determine the relative transactivation activity of the human ERα as formerly described. Briefly, Saccharomyces cerevisiae stably transfected with a human ERα and an estrogen-responsive element fused to the reporter gene lacZ encoding for β-galactosidase were treated with the test substances for about 48 h. The β-galactosidase enzymatic activity was measured in a colorimetric assay using a microplate photometer by hydrolysis of the substrate chlorophenol red β-D-galactopyranoside (Roche Diagnostics, Mannheim, Germany), which leads to the formation of chlorophenol red. This can be measured as an increased absorption at 540 nm. All compounds were diluted in DMSO. […] All compounds were tested in technical quadruplicates and biological triplicates. Statistical analysis was performed by analysis of variance (ANOVA) and Tukey’s post-hoc test with the significance level of p < 0.05.

Values joined by “and” are separate entries in the source; they are usually repeats but may differ in a detail not shown here. Identical values can stand only once.

Usually inhibition stands for the drop in the measured response relative to a control, in per cent. High values mean a response far below the control, low ones a response near the control. For orientation: EC50 means the concentration needed to bring the measured effect to its halfway point. A high value points to lower potency in that assay.

As for `COc1ccc(C(C)=C(c2ccc(O)cc2)c2ccc(Cl)cc2)cc1F` [Compound 3, E/Z-4-[1-(4-Chlorophenyl)-2-(3-fluoro-4-methoxyphenyl)propenyl]-phenol], in the assay with 60 NCI tumor cell lines, the “anti-proliferative activity (in words)” value is recorded as “lacked anti-proliferative activity” and the inhibition at 10 µM came to 2.34%. In addition, on human ERα, the half-maximal effective concentration (EC50) was 40 nM and 40.1 nM; the “Estrogenic Activity (relative β-galactosidase activity)” value was 12.83 ± 2.72.

`COc1cc(C(C)=C(c2ccc(O)cc2)c2ccc(Cl)cc2)ccc1F` [Compound 4, E/Z-4-[1-(4-Chlorophenyl)-2-(4-fluoro-3-methoxyphenyl)propenyl]-phenol]: in the assay on 60 NCI tumor cell lines, the “anti-proliferative activity (in words)” value is “lacked anti-proliferative activity” and 10 µM produced 15.4% inhibition. For the same compound, on human ERα, the EC50 came out at 258 ± 80 nM and the “Estrogenic Activity (relative β-galactosidase activity)” value came to 6.62 ± 1.74.

As to `CC(=C(c1ccc(Cl)cc1)c1ccc(OCCCN(C)C)cc1)c1ccccc1` [Compound 5, E/Z-(3-{4-[1-(4-Chloro-phenyl)-2-phenyl-propenyl]-phenoxy}-propyl)-dimethyl-amine], in the assay on 60 NCI tumor cell lines, the inhibition at 10 µM worked out at 15.4%. Besides, at human ERα, the “Estrogenic Activity (relative β-galactosidase activity)” value came out at 2.25 ± 0.92.

In the assay on 60 NCI tumor cell lines, `CC(=C(c1ccc(Cl)cc1)c1ccc(OCCN2CCCC2)cc1)c1ccccc1` [Compound 6, E/Z-1-(2-{4-[1-(4-Chloro-phenyl)-2-phenyl-propenyl]-phenoxy}-ethyl)-pyrrolidine] returned an inhibition at 10 µM of 37.8%. The “Estrogenic Activity (relative β-galactosidase activity)” value on human ERα is listed as 2.88 ± 0.89.

With `CC(=C(c1ccc(Cl)cc1)c1ccc(OCCN2CCCCC2)cc1)c1ccccc1` [Compound 7, E/Z-1-(2-{4-[1-(4-Chloro-phenyl)-2-phenyl-propenyl]-phenoxy}-ethyl)-piperidine], in the assay with 60 NCI tumor cell lines, the inhibition at 10 µM amounted to 29%. The “Estrogenic Activity (relative β-galactosidase activity)” value at human ERα is 2.87 ± 0.90.

With `CC(=C(c1ccc(Cl)cc1)c1ccc(OCCN2CCOCC2)cc1)c1ccccc1` [Compound 8, E/Z-4-(2-{4-[1-(4-Chloro-phenyl)-2-phenyl-propenyl]-phenoxy}-ethyl)-morpholine], in the assay with 60 NCI tumor cell lines, the “anti-proliferative activity (in words)” value is “lacked anti-proliferative activity” and 10 µM produced 9.4% inhibition. The “Estrogenic Activity (relative β-galactosidase activity)” value on human ERα is given as 1.85 ± 0.11.

Consider `CC(=C(c1ccc(Cl)cc1)c1ccc(OCCN2CCCCCC2)cc1)c1ccccc1` [Compound 9, E/Z-1-(2-{4-[1-(4-Chloro-phenyl)-2-phenyl-propenyl]-phenoxy}-ethyl)-azepane], for which, in the assay on 60 NCI tumor cell lines, the inhibition at 10 µM amounted to 25.4%. Further, the “Estrogenic Activity (relative β-galactosidase activity)” value on human ERα is 6.74 and 6.74 ± 1.67.

Turning to `COc1ccc(C(C)=C(c2ccc(Cl)cc2)c2ccc(OCCCN(C)C)cc2)cc1` [Compound 10, E/Z-(3-{4-[1-(4-Chloro-phenyl)-2-(4-methoxy-phenyl)-propenyl]-phenoxy}-propyl)-dimethyl-amine], in the assay with 60 NCI tumor cell lines, the inhibition at 10 µM is 33.4%. Also, the “Estrogenic Activity (relative β-galactosidase activity)” value at human ERα was 11.61 and 11.61 ± 0.99.

Regarding `COc1ccc(C(C)=C(c2ccc(Cl)cc2)c2ccc(OCCN3CCCC3)cc2)cc1` [Compound 11, E/Z-1-(2-{4-[1-(4-Chloro-phenyl)-2-(4-methoxy-phenyl)-propenyl]-phenoxy}-ethyl)-pyrrolidine], 10 µM produced 67.8% inhibition in the assay with 60 NCI tumor cell lines. Besides, the “Estrogenic Activity (relative β-galactosidase activity)” value at human ERα was 1.98 ± 0.12.

Take `COc1ccc(C(C)=C(c2ccc(Cl)cc2)c2ccc(OCCN3CCCCC3)cc2)cc1` [Compound 12, E/Z-1-(2-{4-[1-(4-Chloro-phenyl)-2-(4-methoxy-phenyl)-propenyl]-phenoxy}-ethyl)-piperidine]: at 10 µM the inhibition in the assay with 60 NCI tumor cell lines was 55.2%. The “Estrogenic Activity (relative β-galactosidase activity)” value at human ERα is reported as 3.65 ± 0.70.

As to `COc1ccc(C(C)=C(c2ccc(Cl)cc2)c2ccc(OCCN3CCOCC3)cc2)cc1` [Compound 13, E/Z-4-(2-{4-[1-(4-Chloro-phenyl)-2-(4-methoxy-phenyl)-propenyl]-phenoxy}-ethyl)-morpholine], in the assay with 60 NCI tumor cell lines, the “anti-proliferative activity (in words)” value is given as “lacked anti-proliferative activity” and at 10 µM the inhibition was 7.86%. Further, the “Estrogenic Activity (relative β-galactosidase activity)” value on human ERα is 12.41 and 12.41 ± 0.26.

Take `COc1ccc(C(C)=C(c2ccc(Cl)cc2)c2ccc(OCCN3CCCCCC3)cc2)cc1` [Compound 14, E/Z-1-(2-{4-[1-(4-Chloro-phenyl)-2-(4-methoxy-phenyl)-propenyl]-phenoxy}-ethyl)-azepane]: in the assay on 60 NCI tumor cell lines, the inhibition at 10 µM stood at 47.3%. The “Estrogenic Activity (relative β-galactosidase activity)” value at human ERα is listed as 1.80 ± 0.09.

In the assay with 60 NCI tumor cell lines, `COc1ccc(C(C)=C(c2ccc(Cl)cc2)c2ccc(OCCCN(C)C)cc2)cc1F` [Compound 15, E/Z-(3-{4-[1-(4-Chlorophenyl)-2-(3-fluoro-4-methoxyphenyl)-propenyl]-phenoxy}-propyl)-dimethyl-amine] had an inhibition at 10 µM of 47.9%. In addition, at human ERα, a half-maximal effect (EC50) was put at 440 ± 10 nM; the “Estrogenic Activity (relative β-galactosidase activity)” value is 7.77 and 7.77 ± 1.9.

In the assay on 60 NCI tumor cell lines, `COc1ccc(C(C)=C(c2ccc(Cl)cc2)c2ccc(OCCN3CCCC3)cc2)cc1F` [Compound 16, E/Z-1-(2-{4-[1-(4-Chlorophenyl)-2-(3-fluoro-4-methoxyphenyl)-propenyl]-phenoxy}-ethyl)-pyrrolidine] came in with an inhibition at 10 µM of 77.2%. In addition, the “Estrogenic Activity (relative β-galactosidase activity)” value at human ERα stood at 2.19 ± 0.71.

As to `COc1ccc(C(C)=C(c2ccc(Cl)cc2)c2ccc(OCCN3CCCCC3)cc2)cc1F` [Compound 17, E/Z-1-(2-{4-[1-(4-Chlorophenyl)-2-(3-fluoro-4-methoxyphenyl)-propenyl]-phenoxy}-ethyl)-piperidine], at 10 µM the inhibition with 60 NCI tumor cell lines was 69.1%. On human ERα, it took 252 ± 8 nM to reach a half-maximal effect (EC50); the “Estrogenic Activity (relative β-galactosidase activity)” value is 7.28 and 7.28 ± 3.10.
